Tests used:
d-IBS = experiment: Study of rifaximin BID doses vs placebo in subjects with d-IBS: adequate relief of IBS symptoms and bloating; assay type: in vivo, human; conditions: for Percentage of subjects with adequate relief of IBS symptoms / Percentage of subjects with adequate relief of bloating symptom: RFX 550 mg BID 14 d, at least 2 of final 3 weeks of treatment phase (Weeks 1-4); for Adequate relief of bloating, post treatment, Failures / Adequate relief of bloating, post treatment, Success / Adequate relief of bloating, post treatment, Failure: RFX 550 2w (N = 54); for Patients with adequate relief of bloating / Patients with adequate relief of global IBS symptoms: 550 mg BID 14 d
Description: This example relates to a study of rifaximin in subjects with d-IBS. […] There were two measures of efficacy assessed. Subjects were questioned on the relief of overall IBS symptoms and bloating. […] The analyses defined success as a “yes” response to questions regarding adequate relief.
All subpopulations in the study responded to therapy. Baseline severity was determined using 7-point Lickert scales during screening for Abdominal Pain/Discomfort and Bloating, and the number, type (normal, hard, loose) and urgency of bowel movements.
Duration of effect was assessed in a follow-up period. Subjects that responded in the 4 week treatment period were followed for an additional 3 months.
The effect of treatment on the percentage of subjects who reported adequate relief of IBS and bloating symptoms for at least two of the final three weeks during the treatment phase (Weeks 1 to 4) is shown in Tables 5-7 and FIGS. 4-6 below.
The study assessed the effect over 12 weeks of follow-up on long-term adequate relief. Subjects who had adequate relief by Week 4 and remained symptom-free at Week 5 were followed during the post-treatment phase and shown in FIGS. 1 and 2. Superiority to placebo was maintained during the 12 weeks post-treatment follow-up. Results for IBS symptoms were RFX 550 mg BID 62.3% versus placebo 49.2%, and RFX 550 mg BID 59.3% versus 50.9% for placebo for the symptom of bloating through week 16. In assessing the follow-up data, there was statistical significance (p<0.05) of bloating and IBS symptoms for RFX 550 mg BID versus placebo.
Two measures of efficacy were assessed independently. The first was the proportion of subjects who provided a ‘yes’ response to the weekly SGA question: “In the past 7 days, have you had adequate relief of your IBS symptoms? (yes/no)”. The second endpoint was the proportion of subjects who provide a ‘yes’ response to the weekly individual symptom question: “In the past 7 days, have you had adequate relief of your symptom of bloating? (yes/no)”. Durability was based on the proportion of subjects that had adequate relief over the entire treatment phase.
It is reported herein that the severity of baseline symptoms of abdominal pain and bloating influenced the response to rifaximin treatment. The co-primary endpoints in this analysis assessed weekly yes/no responses to questions regarding adequate relief of global IBS symptoms and IBS-associated bloating. Severity of baseline IBS symptoms was evaluated as a potential confounder of clinical response and was categorized as mild/moderate or severe based on a mean score of ≤4 vs. >4 (on a 7-point scale) for bloating and abdominal pain.
The Weekly yes/no responses to questions regarding adequate relief of global IBS symptoms and IBS-associated bloating were assessed. Clinical response was defined as adequate relief for 2 of the final 3 treatment weeks (wk 2, 3, or 4). Severity of baseline IBS symptoms was evaluated as a potential confounder of clinical response and was categorized as mild/moderate or severe based on a mean score of ≤4 versus >4 (on a 7-point scale (0=not bothersome; 6=very bothersome)) for bloating and abdominal pain.

cytochrome P450 2C9 = cytochrome P450 2C9 (Homo sapiens, UniProt P11712); experiment: In vitro cytochrome P450 inhibition; assay type: biochemical; conditions: 2 to 200 ng/mL
[1] = RFX 550 mg BID, responders followed through week 16
[2] = patients with mild/moderate abdominal pain at baseline
[3] = patients with mild/moderate bloating at baseline

Chain of cytochrome P450 2C9 (P11712 whole entry): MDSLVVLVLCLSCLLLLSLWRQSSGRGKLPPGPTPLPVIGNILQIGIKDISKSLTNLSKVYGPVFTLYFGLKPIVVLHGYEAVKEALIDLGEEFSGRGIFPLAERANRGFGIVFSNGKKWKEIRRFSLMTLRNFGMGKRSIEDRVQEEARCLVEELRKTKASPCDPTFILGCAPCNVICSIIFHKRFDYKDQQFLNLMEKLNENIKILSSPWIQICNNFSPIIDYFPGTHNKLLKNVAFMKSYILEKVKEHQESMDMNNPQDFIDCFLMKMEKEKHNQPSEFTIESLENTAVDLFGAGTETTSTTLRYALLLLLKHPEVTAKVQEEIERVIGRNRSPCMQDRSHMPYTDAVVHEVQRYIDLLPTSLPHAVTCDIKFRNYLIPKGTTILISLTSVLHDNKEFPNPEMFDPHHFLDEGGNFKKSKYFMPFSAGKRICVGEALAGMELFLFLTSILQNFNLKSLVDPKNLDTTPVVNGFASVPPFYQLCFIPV

CO[C@H]1/C=C/O[C@@]2(C)Oc3c(C)c(O)c4c(O)c(c5c(nc6cc(C)ccn65)c4c3C2=O)NC(=O)/C(C)=C\C=C\[C@H](C)[C@H](O)[C@@H](C)[C@@H](O)[C@@H](C)[C@H](OC(C)=O)[C@@H]1C [Rifaximin, (2S,16Z,18E,20S,21S,22R,23R,24R,25S,26S,27S,28E)-5,6,21,23,25 Pentahydroxy-27-methoxy-2,4,11,16,20,22,24,26-octamethyl-2,7-(epoxypentadeca-(1,11,13)trienimino) benzofuro (4,5-e) pyrido(1,2-a) benzimidazole-1,15(2H)-dione,25-acetate]
Treatment effect, Bloating (d-IBS; Age <65): 6.8%
Treatment effect, IBS Sx (d-IBS; Age <65): 6.9%
Treatment effect, Bloating (d-IBS; Age ≥65): 3.2%
Treatment effect, IBS Sx (d-IBS; Age ≥65): 19.1%
Treatment effect, Bloating (d-IBS; Diabetes History N): 7.4%
Treatment effect, IBS Sx (d-IBS; Diabetes History N): 9.5%
Treatment effect, Bloating (d-IBS; Diabetes History Y): −5.6%
Treatment effect, IBS Sx (d-IBS; Diabetes History Y): −12.7%
Treatment effect, Bloating (d-IBS; Disease Duration 10-20 y): 11.7%
Treatment effect, IBS Sx (d-IBS; Disease Duration 10-20 y): 20.1%
Treatment effect, Bloating (d-IBS; Disease Duration >20 y): 35.1%
Treatment effect, IBS Sx (d-IBS; Disease Duration >20 y): 46.6%
Treatment effect, Bloating (d-IBS; Disease Duration ≤10 y): 2.8%
Treatment effect, IBS Sx (d-IBS; Disease Duration ≤10 y): 1.8%
Adequate relief of IBS symptoms at end of treatment phase, Failure (d-IBS; Female, RFX 275 2w): 46 (56.8%) n (%)
Adequate relief of IBS symptoms at end of treatment phase, Success (d-IBS; Female, RFX 275 2w): 35 (43.2%) n (%)
Adequate relief of bloating at end of treatment phase, Failure (d-IBS; Female, RFX 275 2w): 52 (64.2%) n (%)
Adequate relief of bloating at end of treatment phase, Success (d-IBS; Female, RFX 275 2w): 29 (35.8%) n (%)
Adequate relief of IBS symptoms at end of treatment phase, Failure (d-IBS; Female, RFX 550 2w): 66 (48.2%) n (%)
Adequate relief of IBS symptoms at end of treatment phase, Success (d-IBS; Female, RFX 550 2w): 71 (51.8%) n (%)
Adequate relief of bloating at end of treatment phase, Failure (d-IBS; Female, RFX 550 2w): 74 (54.0%) n (%)
Adequate relief of bloating at end of treatment phase, Success (d-IBS; Female, RFX 550 2w): 63 (46.0%) n (%)
Adequate relief of IBS symptoms at end of treatment phase, Failure (d-IBS; Female, RFX 550 4w): 42 (55.3%) n (%)
Adequate relief of IBS symptoms at end of treatment phase, Success (d-IBS; Female, RFX 550 4w): 34 (44.7%) n (%)
Adequate relief of bloating at end of treatment phase, Failure (d-IBS; Female, RFX 550 4w): 44 (57.9%) n (%)
Adequate relief of bloating at end of treatment phase, Success (d-IBS; Female, RFX 550 4w): 32 (42.1%) n (%)
Adequate relief of IBS symptoms at end of treatment phase, Failure (d-IBS; Female, RFX 1100 2w): 44 (60.3%) n (%)
Adequate relief of IBS symptoms at end of treatment phase, Success (d-IBS; Female, RFX 1100 2w): 29 (39.7%) n (%)
Adequate relief of bloating at end of treatment phase, Failure (d-IBS; Female, RFX 1100 2w): 45 (61.6%) n (%)
Adequate relief of bloating at end of treatment phase, Success (d-IBS; Female, RFX 1100 2w): 28 (38.4%) n (%)
Treatment effect, Bloating (d-IBS; Gender F): 3.9%
Treatment effect, IBS Sx (d-IBS; Gender F): 3.5%
Treatment effect, Bloating (d-IBS; Gender M): 13.6%
Treatment effect, IBS Sx (d-IBS; Gender M): 21%
Adequate relief of IBS symptoms at end of treatment phase, Failure (d-IBS; Male, RFX 275 2w): 9 (64.3%) n (%)
Adequate relief of IBS symptoms at end of treatment phase, Success (d-IBS; Male, RFX 275 2w): 5 (35.7%) n (%)
Adequate relief of bloating at end of treatment phase, Failure (d-IBS; Male, RFX 275 2w): 8 (57.1%) n (%)
Adequate relief of bloating at end of treatment phase, Success (d-IBS; Male, RFX 275 2w): 6 (42.9%) n (%)
Adequate relief of IBS symptoms at end of treatment phase, Failure (d-IBS; Male, RFX 550 2w): 25 (46.3%) n (%)
Adequate relief of IBS symptoms at end of treatment phase, Success (d-IBS; Male, RFX 550 2w): 29 (53.7%) n (%)
Adequate relief of bloating at end of treatment phase, Failure (d-IBS; Male, RFX 550 2w): 29 (53.7%) n (%)
Adequate relief of bloating at end of treatment phase, Success (d-IBS; Male, RFX 550 2w): 25 (46.3%) n (%)
Adequate relief of IBS symptoms at end of treatment phase, Failure (d-IBS; Male, RFX 550 4w): 15 (68.2%) n (%)
Adequate relief of IBS symptoms at end of treatment phase, Success (d-IBS; Male, RFX 550 4w): 7 (31.8%) n (%)
Adequate relief of bloating at end of treatment phase, Failure (d-IBS; Male, RFX 550 4w): 16 (72.7%) n (%)
Adequate relief of bloating at end of treatment phase, Success (d-IBS; Male, RFX 550 4w): 6 (27.3%) n (%)
Adequate relief of IBS symptoms at end of treatment phase, Failure (d-IBS; Male, RFX 1100 2w): 14 (53.8%) n (%)
Adequate relief of IBS symptoms at end of treatment phase, Success (d-IBS; Male, RFX 1100 2w): 12 (46.2%) n (%)
Adequate relief of bloating at end of treatment phase, Failure (d-IBS; Male, RFX 1100 2w): 16 (61.5%) n (%)
Adequate relief of bloating at end of treatment phase, Success (d-IBS; Male, RFX 1100 2w): 10 (38.5%) n (%)
Percentage of subjects with adequate relief of IBS symptoms (d-IBS; ITT): 52%
Percentage of subjects with adequate relief of bloating symptom (d-IBS; ITT): 46%
Percentage of subjects with adequate relief of IBS symptoms (d-IBS; ITT, listed as RFX): 52.4%
Percentage of subjects with adequate relief of bloating symptom (d-IBS; ITT, listed as RFX): 46.1%
Percentage of subjects with 0 weeks with adequate relief of IBS symptoms (d-IBS; RFX 550 mg BID, ITT): 33%
Percentage of subjects with 0 weeks with adequate relief of bloating symptoms (d-IBS; RFX 550 mg BID, ITT): 35%
Percentage of subjects with 1 week with adequate relief of IBS symptoms (d-IBS; RFX 550 mg BID, ITT): 11%
Percentage of subjects with 1 week with adequate relief of bloating symptoms (d-IBS; RFX 550 mg BID, ITT): 14%
Percentage of subjects with 2 weeks with adequate relief of IBS symptoms (d-IBS; RFX 550 mg BID, ITT): 15%
Percentage of subjects with 2 weeks with adequate relief of bloating symptoms (d-IBS; RFX 550 mg BID, ITT): 15%
Percentage of subjects with 3 weeks with adequate relief of IBS symptoms (d-IBS; RFX 550 mg BID, ITT): 23%
Percentage of subjects with 3 weeks with adequate relief of bloating symptoms (d-IBS; RFX 550 mg BID, ITT): 20%
Percentage of subjects with 4 weeks with adequate relief of IBS symptoms (d-IBS; RFX 550 mg BID, ITT): 16%
Percentage of subjects with 4 weeks with adequate relief of bloating symptoms (d-IBS; RFX 550 mg BID, ITT): 14%
Long-term adequate relief of IBS symptoms in post-treatment follow-up (d-IBS; [1]): 62.3%
Long-term adequate relief of the symptom of bloating in post-treatment follow-up (d-IBS; [1]): 59.3%
Adequate relief of bloating, post treatment, Failures (d-IBS; Week 6): 5 (9.3%) n (%)
Adequate relief of bloating, post treatment, Success (d-IBS; Week 6): 49 (90.7%) n (%)
Adequate relief of bloating, post treatment, Failures (d-IBS; Week 7): 9 (16.7%) n (%)
Adequate relief of bloating, post treatment, Success (d-IBS; Week 7): 45 (83.3%) n (%)
Adequate relief of bloating, post treatment, Failures (d-IBS; Week 8): 7 (13.0%) n (%)
Adequate relief of bloating, post treatment, Success (d-IBS; Week 8): 47 (87.0%) n (%)
Adequate relief of bloating, post treatment, Failures (d-IBS; Week 9): 15 (27.8%) n (%)
Adequate relief of bloating, post treatment, Success (d-IBS; Week 9): 39 (72.2%) n (%)
Adequate relief of bloating, post treatment, Failures (d-IBS; Week 10): 15 (27.8%) n (%)
Adequate relief of bloating, post treatment, Success (d-IBS; Week 10): 39 (72.2%) n (%)
Adequate relief of bloating, post treatment, Failures (d-IBS; Week 11): 19 (35.2%) n (%)
Adequate relief of bloating, post treatment, Success (d-IBS; Week 11): 35 (64.8%) n (%)
Adequate relief of bloating, post treatment, Failure (d-IBS; Week 12): 18 (33.3%) n (%)
Adequate relief of bloating, post treatment, Success (d-IBS; Week 12): 36 (66.7%) n (%)
Adequate relief of bloating, post treatment, Failure (d-IBS; Week 13): 21 (38.9%) n (%)
Adequate relief of bloating, post treatment, Success (d-IBS; Week 13): 33 (61.1%) n (%)
Adequate relief of bloating, post treatment, Failure (d-IBS; Week 14): 20 (37.0%) n (%)
Adequate relief of bloating, post treatment, Success (d-IBS; Week 14): 34 (63.0%) n (%)
Adequate relief of bloating, post treatment, Failure (d-IBS; Week 15): 23 (42.6%) n (%)
Adequate relief of bloating, post treatment, Success (d-IBS; Week 15): 31 (57.4%) n (%)
Adequate relief of bloating, post treatment, Failure (d-IBS; Week 16): 22 (40.7%) n (%)
Adequate relief of bloating, post treatment, Success (d-IBS; Week 16): 32 (59.3%) n (%)
Treatment effect, Bloating (d-IBS; aIBS): 31.4%*, 31.4%
Treatment effect, IBS Sx (d-IBS; aIBS): 31.4%*, 31.4%
Treatment effect, Bloating (d-IBS; dIBS only): 4.5%
Treatment effect, IBS Sx (d-IBS; dIBS only): 6.3%
Patients with adequate relief of bloating (d-IBS; [2]): 44%
Patients with adequate relief of global IBS symptoms (d-IBS; [2]): 50%
Patients with adequate relief of bloating (d-IBS; [3]): 47%
Patients with adequate relief of global IBS symptoms (d-IBS; [3]): 56%
Inhibition of cytochrome P450 2C9 (cytochrome P450 2C9): does not inhibit

Source: patent publication US10610522B2, “Methods for retreating irritable bowel syndrome (IBS)” (Salix Pharmaceuticals, Inc., priority 2014, dated 2020)
